Converted amounts (≈) assume the structure as drawn.
Key:
[1] = test system: TEV protease, Endoproteinase AspN, Endoproteinase GluC; settings: many other proteases (TEV protease 37 °C, Endoproteinase AspN and GluC 30 °C), 32 μg/mL, 100:1 (w:w), 4 h, 8 h, 12 h, UPLC-LRMS
Description: (§1) Protease stability of massatide A
(§2) We selected TEV protease, Endoproteinase AspN, Endoproteinase GluC, trypsin, and chymotrypsin to evaluate the stability of massatide A. The protease digestion assay was conducted as follows: (i) Stock solution of massatide A (3.2 mg/mL in DMSO) was diluted in H2O with final concentration of 32 μg/mL, (ii) each protease was added with 100:1 (w:w) ratio and incubated under corresponding temperature, i.e., 37 °C for TEV protease, trypsin, and chymotrypsin and 30 °C for Endoproteinase AspN and […]
(§3) Endoproteinase GluC. […]

[2] = test system: trypsin; settings: 32 μg/mL in H2O, protease 100:1 (w:w), 37 °C, 4 h, 8 h and 12 h, UPLC-LRMS
Description: as §1, §2, §3

[3] = test system: S. aureus ATCC259923; assay: UDP-N-acetyl-muramic acid pentapeptide levels (HPLC-HRMS); format: cell-based, Staphylococcus aureus; settings: S. aureus treated with or without massatide A, comparative HPLC-HRMS, preliminary unpublished data
Excerpt: page 26: “Also, there is no discussion about the possible mechanism of antibacterial activity.” We have included a discussion on the proposed mode of action of […] A in the discussion section in lines 388-394 of our manuscript. “Avi(Me)Cys-containing lanthipeptides are reported to target lipid II, an essential precursor in cell wall biosynthesis. […], which shares structural similarities with cacaoidin, may potentially target lipid II or certain membrane proteins involved in peptidoglycan biosynthesis. However, a comprehensive study is necessary to fully uncover the detailed mode of action of […] A, which will be the primary focus of our ongoing research.” In our ongoing study, we have obtained some preliminary unpublished data supporting our hypothesis that […] A may inhibit cell wall biosynthesis. We assessed UDP-N-acetyl-muramic acid pentapeptide levels, an essential precursor in cell wall biosynthesis, in the S. aureus ATCC259923 strain treated with or without […] The mode of action of […] A will be further investigated in our ongoing research. […] 12. p. 16: the data that […] A1 and A2 act synergistically are not convincing - see also main comment above. […] We acknowledge the concern regarding the insufficient evidence supporting the presence of a synergistic effect in our study. As a result, we have opted to remove any conclusions relating to synergy. […]

[4] = test system: LREfa 20-1; assay: microbe, parasite or virus in culture; format: cell-based, Enterococcus faecalis; settings: 20 h
Description: (§4) For MIC determination, Staphylococcus aureus ATCC25923, Bacillus subtilis 168, Micrococcus luteus DSM1790, Enterococcus faecalis OG1RF, Enterococcus faecium MCC2763, Escherichia coli DH5α and Pseudomonas aeruginosa PAO1 were used as indicator strains. Nisin and vancomycin were used as positive controls. A dilution series of massatide A, massatide B, vancomycin (16, 8, 4, 2, 1, 0.5, 0.25, 0.125, 0.0625, 0.0313 μg/mL) and sistertide A1, kebanetide A1, kebanetide A2, nisin (64, 32, 16, 8, 4, 2, 1, 0.5, 0.25, 0.125 μg/mL) were prepared in 96-well plate from 1–10th column. The indicator strains were added to the compound-containing well. The indicator strain culture with no antibiotics was prepared in the 11th column. The 12th column was filled with 200 μL empty MHB medium. The 96-well plate was incubated at 37 °C for 20 h (30 °C for M. luteus and B. subtilis). The OD600 was detected on MULTISKAN Sky (Thermo Scientific) and MIC values were determined. The MIC values of clinical isolates were determined by Sichuan Primed Shines Bio-tech Co., Ltd. (China) following similar protocol. Levofloxacin was used as a positive control.

[5] = test system: VREfa ATCC51575; assay: microbe, parasite or virus in culture; format: cell-based, Enterococcus faecalis; settings: ATCC51575, 20 h
Description: as §4

[6] = test system: ICR mice; assay: Mouse acute toxicity test; format: in vivo
Description: Massatide A was dissolved in saline to the required concentration for the experiments. Six-week-old specific pathogen-free male ICR mice weighing 18–20 g were randomly divided into 4 groups (4 per group) and administered in a single intraperitoneal injection. Group 1 animals received 0.9% saline only, while groups 2–4 were given massatide A at 10, 30, and 50 mg/kg, respectively. The animals were continuously observed for general behavioral changes for 5 days and survival rate was recorded.

[7] = test system: chymotrypsin; settings: 32 μg/mL in H2O, protease 100:1 (w:w), 37 °C, 4 h, 8 h and 12 h, UPLC-LRMS
Description: as §1, §2, §3
1 μ L samples were taken and diluted with water for UPLC -LRMS analysis. […]

[8] = test system: MRSA ATCC43300; assay: Mouse septicaemia model; format: in vivo; settings: for number of new dead mouse: infection controlled in mouse; for survival rate of mice: 5 per group
Description: Briefly, 6-week-old specific pathogen-free male ICR mice weighing 18–20 g were randomly divided into 4 groups (5 per group). Each mouse received an intraperitoneal injection on the left side of the abdomen with 0.4 ml, 1.8 ×10^10 c.f.u./mL MRSA ATCC43300 suspended in saline containing 5% yeast in each mouse. One hour after infection, the mice were injected intraperitoneally with saline (negative control), massatide A dissolved in saline at 10 mg/kg, 30 mg/kg and 50 mg/kg (experimental groups). […] We injected 0.4 ml solution to each mouse. Animal deaths were recorded for 7 days, and the survival rates were calculated to generate the mouse survival curve.

## C/C=C1\NC(=O)C(N(C)C)C(C)SC[C@@H](C(=O)N[C@H](CC)C(=O)N[C@H](C(=O)N[C@@H](C)C(=O)N[C@H](C)C(=O)N[C@@H](Cc2ccccc2)C(=O)N[C@@H](C)C(=O)NC2C(=O)NCC(=O)N[C@@H](Cc3ccc(O)cc3)C(=O)N[C@@H](Cc3ccccc3)C(=O)N[C@H](C)C(=O)N/C=C\SC2C)C(C)C)NC(=O)[C@@H]2CCCN2C(=O)[C@H](C(C)C)NC1=O (stereo partly drawn) [Massatide A (1), massatide A]
[1]
  protease stability: resistant
[2]
  protease stability: resistant
[3]
  UDP-N-acetyl-muramic acid pentapeptide levels: increased levels
[4]
  MIC: 4 µg/mL (≈ 2.45 µM)
[5]
  MIC: 4 µg/mL (≈ 2.45 µM)
[6]; 10 mg/kg i.p., day 1, 4 mice per group
  number of new dead mouse: 0
[6]; 10 mg/kg i.p., day 2, 4 mice per group
  number of new dead mouse: 0
[6]; 10 mg/kg i.p., day 3, 4 mice per group
  number of new dead mouse: 0
[6]; 10 mg/kg i.p., day 5, 4 mice per group
  number of new dead mouse: 0
[6]; 30 mg/kg i.p., day 1, 4 mice per group
  number of new dead mouse: 0
[6]; 30 mg/kg i.p., day 2, 4 mice per group
  number of new dead mouse: 0
[6]; 30 mg/kg i.p., day 3, 4 mice per group
  number of new dead mouse: 0
[6]; 30 mg/kg i.p., day 5, 4 mice per group
  number of new dead mouse: 0
[6]; 50 mg/kg i.p., day 1, 4 mice per group
  number of new dead mouse: 0
[6]; 50 mg/kg i.p., day 2, 4 mice per group
  number of new dead mouse: 0
[6]; 50 mg/kg i.p., day 3, 4 mice per group
  number of new dead mouse: 0
[6]; 50 mg/kg i.p., day 5, 4 mice per group
  number of new dead mouse: 0
[6]; male ICR mice, single intraperitoneal injection, 10-50 mg/kg, 5 days, 4 per group
  survival / signs of acute toxicity: all treated mice survived without any signs of acute toxicity
[7]
  protease stability: resistant
[8]; 10mg/kg, time 2.29 day
  number of new dead mouse: 1
[8]; 10mg/kg, time 3 day
  number of new dead mouse: 0
[8]; 10mg/kg, time 4 day
  number of new dead mouse: 0
[8]; 10mg/kg, time 6 day
  number of new dead mouse: 0
[8]; 10mg/kg, time 7 day
  number of new dead mouse: 0
[8]; 30mg/kg, time 2.29 day
  number of new dead mouse: 1
[8]; 30mg/kg, time 3 day
  number of new dead mouse: 0
[8]; 30mg/kg, time 4 day
  number of new dead mouse: 0
[8]; 30mg/kg, time 6 day
  number of new dead mouse: 0
[8]; 30mg/kg, time 7 day
  number of new dead mouse: 0
[8]; 50mg/kg, time 2.29 day
  number of new dead mouse: 0
[8]; 50mg/kg, time 3 day
  number of new dead mouse: 0
[8]; 50mg/kg, time 4 day
  number of new dead mouse: 0
[8]; 50mg/kg, time 6 day
  number of new dead mouse: 0
[8]; 50mg/kg, time 7 day
  number of new dead mouse: 0
[8]; single dose 10 mg/kg i.p. 1 h after i.p. infection with 7.2 × 10^9 c.f.u. MRSA ATCC43300, 7 days
  survival rate of mice: 80%
[8]; single dose 50 mg/kg i.p. 1 h after i.p. infection with 7.2 × 10^9 c.f.u. MRSA ATCC43300, 7 days
  survival rate of mice: 100%
